Laboratory results published in patent US12180187B2, “1-phenyl-5-azinylpyrazolyl-3-oxyalkyl acids and their use for controlling unwanted plant growth” (BAYER AKTIENGESELLSCHAFT, priority 2019, dated 2024).

Key:
[1] = test system: SETVI; assay: Pre-emergence action against SETVI, 1280 g/ha; type: in vivo, Setaria viridis; settings: visual scoring after about 3 weeks vs untreated controls, 100% = plants have died, 0% = like control plants
Procedure, shortened: (§1)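 Compound applied as WP or EC in aqueous spray (0.5% additive, 600 L/ha) to the surface of sandy loam covering freshly sown seeds. After about 3 weeks under good greenhouse conditions, damage is given as visual percentage, 100% meaning plant death.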

[2] = test system: ECHCG; assay: Pre-emergence action against ECHCG, 1280 g/ha; type: in vivo, Echinochloa crus-galli; settings: visual scoring after about 3 weeks vs untreated controls, 100% = plants have died, 0% = like control plants
Procedure, shortened: as §1

[3] = test system: MATIN; assay: Post-emergence action against MATIN, 1.28 kg/ha; type: in vivo, Tripleurospermum inodorum (Matricaria inodora); settings: dosage 1280 g/ha, visual rating about 3 weeks after treatment vs untreated controls (100% = plants died)
Procedure, shortened: (§2)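 Percent activity was scored visually ~3 wk post-spray relative to untreated plants. Treatment was post-emergence at the one-leaf stage using WP/EC in water with 0.5% additive (600 L/ha).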

[4] = test system: LOLRI; assay: Pre-emergence action against LOLRI, 1280 g/ha; type: in vivo, Lolium rigidum; settings: visual scoring after about 3 weeks vs untreated controls, 100% = plants have died, 0% = like control plants
Procedure, shortened: as §1

[5] = test system: ALOMY; assay: Post-emergence action against ALOMY, 1.28 kg/ha; type: in vivo, Alopecurus myosuroides; settings: dosage 1280 g/ha, visual rating about 3 weeks after treatment vs untreated controls
Procedure, shortened: as §2

[6] = test system: KCHSC; assay: Pre-emergence action against KCHSC, 1280 g/ha; type: in vivo, Bassia scoparia; settings: scored visually after about 3 weeks vs untreated controls (100% = plants have died)
Procedure, shortened: as §1

[7] = test system: STEME; assay: Pre-emergence action against STEME, 1280 g/ha; type: in vivo, Stellaria media; settings: scored visually after about 3 weeks vs untreated controls (100% = plants have died)
Procedure, shortened: as §1

[8] = test system: ABUTH; assay: Post-emergence action against ABUTH, 1.28 kg/ha; type: in vivo, Abutilon theophrasti; settings: dosage 1280 g/ha, visual rating about 3 weeks after treatment vs untreated controls (100% = plants died)
Procedure, shortened: as §2

[9] = test system: MATIN; assay: Pre-emergence action against MATIN, 1280 g/ha; type: in vivo, Tripleurospermum inodorum (Matricaria inodora); settings: scored visually after about 3 weeks vs untreated controls (100% = plants have died)
Procedure, shortened: as §1

[10] = test system: POAAN; assay: Post-emergence action against POAAN, 1.28 kg/ha; type: in vivo, Poa annua; settings: dosage 1280 g/ha, visual rating about 3 weeks after treatment vs untreated controls
Procedure, shortened: as §2

[11] = test system: ALOMY; assay: Pre-emergence action against ALOMY, 1280 g/ha; type: in vivo, Alopecurus myosuroides; settings: visual scoring after about 3 weeks vs untreated controls, 100% = plants have died, 0% = like control plants
Procedure, shortened: as §1

[12] = test system: AMARE; assay: Post-emergence action against AMARE, 1.28 kg/ha; type: in vivo, Amaranthus retroflexus; settings: dosage 1280 g/ha, visual rating about 3 weeks after treatment vs untreated controls (100% = plants died)
Procedure, shortened: as §2

[13] = test system: DIGSA; assay: Post-emergence action against DIGSA, 1.28 kg/ha; type: in vivo, Digitaria sanguinalis; settings: dosage 1280 g/ha, visual rating about 3 weeks after treatment vs untreated controls
Procedure, shortened: as §2

[14] = test system: VERPE; assay: Post-emergence action against VERPE, 1.28 kg/ha; type: in vivo, Veronica persica; settings: dosage 1280 g/ha, visual rating about 3 weeks after treatment vs untreated controls (100% = plants died)
Procedure, shortened: as §2

[15] = test system: ABUTH; assay: Pre-emergence action against ABUTH, 1280 g/ha; type: in vivo, Abutilon theophrasti; settings: scored visually after about 3 weeks vs untreated controls (100% = plants have died)
Description: 1. Pre-Emergence Herbicidal Effect and Crop Plant Compatibility a) Seeds of mono- and dicotyledonous weed plants are placed in plastic pots in sandy loam soil (doubly sown with one species each of mono- or dicotyledonous weed plants per pot) and covered with soil. The compounds of the invention, formulated in the form of wettable powders (WP) or as emulsion concentrates (EC), are then applied onto the surface of the covering soil as aqueous suspension or emulsion with addition of 0.5% additive at a water application rate equivalent to 600 litres per hectare. After the treatment, the pots are placed in a greenhouse and kept under good growth conditions for the trial plants. After about 3 weeks, the effect of the preparations is scored visually in comparison with untreated controls as percentages. For example, 100% activity=the plants have died, 0% activity=like control plants. 1. Pre-Emergence Effectiveness Tables 1 to 12 below show the effects of selected compounds of the general formula (I) according to Tables 1 and 2 on various harmful plants and at an application rate corresponding to 1280 g/ha, which were obtained by the experimental procedure mentioned above.

[16] = test system: LOLRI; assay: Post-emergence action against LOLRI, 1.28 kg/ha; type: in vivo, Lolium rigidum; settings: dosage 1280 g/ha, visual rating about 3 weeks after treatment vs untreated controls
Procedure, shortened: as §2

[17] = test system: POAAN; assay: Pre-emergence action against POAAN, 1280 g/ha; type: in vivo, Poa annua; settings: visual scoring after about 3 weeks vs untreated controls, 100% = plants have died, 0% = like control plants
Procedure, shortened: as §1

[18] = test system: VERPE; assay: Pre-emergence action against VERPE, 1280 g/ha; type: in vivo, Veronica persica; settings: scored visually after about 3 weeks vs untreated controls (100% = plants have died)
Procedure, shortened: as §1

[19] = test system: STEME; assay: Post-emergence action against STEME, 1.28 kg/ha; type: in vivo, Stellaria media; settings: dosage 1280 g/ha, visual rating about 3 weeks after treatment vs untreated controls (100% = plants died)
Procedure, shortened: as §2

[20] = test system: DIGSA; assay: Pre-emergence action against DIGSA, 1280 g/ha; type: in vivo, Digitaria sanguinalis; settings: visual scoring after about 3 weeks vs untreated controls, 100% = plants have died, 0% = like control plants
Procedure, shortened: as §1

[21] = test system: KCHSC; assay: Post-emergence action against KCHSC, 1.28 kg/ha; type: in vivo, Bassia scoparia; settings: dosage 1280 g/ha, visual rating about 3 weeks after treatment vs untreated controls (100% = plants died)
Procedure, shortened: as §2

[22] = test system: AMARE; assay: Pre-emergence action against AMARE, 1280 g/ha; type: in vivo, Amaranthus retroflexus; settings: scored visually after about 3 weeks vs untreated controls (100% = plants have died)
Procedure, shortened: as §1

[23] = test system: ECHCG; assay: Post-emergence action against ECHCG, 1.28 kg/ha; type: in vivo, Echinochloa crus-galli; settings: dosage 1280 g/ha, visual rating about 3 weeks after treatment vs untreated controls
Procedure, shortened: as §2

[24] = test system: SETVI; assay: Post-emergence action against SETVI, 1.28 kg/ha; type: in vivo, Setaria viridis; settings: dosage 1280 g/ha, visual rating about 3 weeks after treatment vs untreated controls
Procedure, shortened: as §2

SMILES	Pre-emergence action against SETVI [1]	Pre-emergence action against ECHCG [2]	Post-emergence action against MATIN [3]	Pre-emergence action against LOLRI [4]	Post-emergence action against ALOMY [5]	Pre-emergence action against KCHSC [6]	Pre-emergence action against STEME [7]	Post-emergence action against ABUTH [8]	Pre-emergence action against MATIN [9]	Post-emergence action against POAAN [10]	Pre-emergence action against ALOMY [11]	Post-emergence action against AMARE [12]	Post-emergence action against VERPE [14]	Pre-emergence action against ABUTH [15]	Post-emergence action against LOLRI [16]	Pre-emergence action against POAAN [17]	Pre-emergence action against VERPE [18]	Post-emergence action against STEME [19]	Pre-emergence action against DIGSA [20]	Post-emergence action against KCHSC [21]	other results
COC(=O)[C@@H](C)Oc1nn(-c2cc(F)ccc2F)c(-c2ccc(F)nc2)c1C#N [VII-099]	100%	100%	100%	100%	100%	100%	100%	90%	100%	100%	90%	100%	100%	90%	100%	100%	100%	100%	100%	100%	Post-emergence action against DIGSA [13]: 100%; Pre-emergence action against AMARE [22]: 100%
COC(=O)[C@@H](C)Oc1nn(-c2ccccc2F)c(-c2ccc(F)nc2)c1Br [VII-123-a]	100%	100%	90%	100%	100%	100%	100%	90%	100%	100%	100%	90%	90%	90%	100%	100%	100%	100%	100%	90%	Post-emergence action against ECHCG [23]: 100%; Post-emergence action against SETVI [24]: 100%; Pre-emergence action against AMARE [22]: 100%
